Laboratory results as given in patent US8846710B2, “Method of preferentially inducing the biosynthesis of interferon” (3M Innovative Properties Company, priority 2005, dated 2014).

test system: interferon (α) (IFN-α); experiment: Cytokine induction in human cells: IFN-α secreted by PBMC into culture media (ELISA); assay type: cell-based; conditions: Table 10; human PBMC; lowest tested concentration inducing IFN-α over usually 20 pg/mL; median where more than one experiment; read-out: Minimum Effective Concentration (μM) IFN
Excerpt: (§1) Cytokine Induction in Human Cells
(§2) An in vitro human blood cell system is used to assess cytokine induction. Activity is based on the measurement of interferon (α) and tumor necrosis factor (α) (IFN-α and TNF-α, respectively) secreted into culture media as described by Testerman et. al. in “Cytokine Induction by the Immunomodulators Imiquimod and S-27609”, Journal of Leukocyte Biology, 58, 365-372 (September, 1995).
(§3) Blood Cell Preparation for Culture
(§4) Whole blood from healthy human donors is collected by venipuncture into vacutainer tubes or syringes containing EDTA. Peripheral blood mononuclear cells (PBMC) are separated from whole blood by density gradient centrifugation using HISTOPAQUE-1077 (Sigma, St. Louis, Mo.) or Ficoll-Paque Plus (Amersham Biosciences Piscataway, N.J.). Blood is diluted 1:1 with Dulbecco's Phosphate Buffered Saline (DPBS) or Hank's Balanced Salts Solution (HBSS). Alternately, whole blood is placed in Accuspin (Sigma) or LeucoSep (Oreiner Bio-One, Inc., Longwood, Fla.) centrifuge frit tubes containing density gradient medium. The PBMC layer is collected and washed twice with DPBS or HBSS and re-suspended at 4×10^6 cells/mL in RPMI complete. The PBMC suspension is added to 96 well flat bottom sterile tissue culture plates containing an equal volume of RPMI complete media containing test compound.
(§5) The compounds are solubilized in dimethyl sulfoxide (DMSO). The DMSO concentration should not exceed a final concentration of 1% for addition to the culture wells. The compounds are generally tested at concentrations ranging from 30-0.014 μM. Controls include cell samples with media only, cell samples with DMSO only (no compound), and cell samples with reference compound.
(§6) The solution of test compound is added at 60 μM to the first well containing RPMI complete and serial 3 fold dilutions are made in the wells. The PBMC suspension is then added to the wells in an equal volume, bringing the test compound concentrations to the desired range (usually 30-0.014 μM). The final concentration of PBMC suspension is 2×10^6 cells/mL. The plates are covered with sterile plastic lids, mixed gently and then incubated for 18 to 24 hours at 37° C. in a 5% carbon dioxide atmosphere.
(§7) Following incubation the plates are centrifuged for 10 minutes at 1000 rpm (approximately 200×g) at 4° C. The cell-free culture supernatant is removed and transferred to sterile polypropylene tubes. Samples are maintained at −30 to −70° C. until analysis. The samples are analyzed for IFN-α by ELISA and for TNF-α by IGEN/BioVeris Assay.
(§8) Interferon (α) and Tumor Necrosis Factor (α) Analysis
IFN-α concentration is determined with a human multi-subtype calorimetric sandwich ELISA (Catalog Number 41105) from PBL Biomedical Laboratories, Piscataway, N.J. Results are expressed in pg/mL.
(§9) In total, the data output of the assay consists of concentration values of TNF-α and IFN-α (y-axis) as a function of compound concentration (x-axis).
Analysis of the data has two steps. First, the greater of the mean DMSO (DMSO control wells) or the experimental background (usually 20 pg/mL for IFN-α and 40 pg/mL for TNF-α) is subtracted from each reading. If any negative values result from background subtraction, the reading is reported as “*”, and is noted as not reliably detectable. In subsequent calculations and statistics, “*”, is treated as a zero. Second, all background subtracted values are multiplied by a single adjustment ratio to decrease experiment to experiment variability. The adjustment ratio is the area of the reference compound in the new experiment divided by the expected area of the reference compound based on the past 61 experiments (unadjusted readings). […] The reference compound used is 2-[4-amino-2-ethoxymethyl-6,7,8,9-tetrahydro-α,α-dimethyl-1H-imidazo[4,5-c]quinolin-1-yl]ethanol hydrate (U.S. Pat. No. 5,352,784; Example 91) and the expected area is the sum of the median dose values from the past 61 experiments. […]

SMILES	minimal effective concentration [µM]
COCc1nc2c(N)nc3cc(-c4cncc(CO)c4)ccc3c2n1CC(C)(C)O [Analog 13]	0.12
CCOCc1nc2c(N)nc3cc(-c4cncc(CO)c4)ccc3c2n1CC(C)(C)O [Analog 14]	0.014
CCc1nc2c(N)nc3cc(-c4cncc(CO)c4)ccc3c2n1CC(C)(C)O [Analog 15]	0.014
COCCc1nc2c(N)nc3cc(-c4cncc(CO)c4)ccc3c2n1CC(C)(C)O [Analog 16]	0.014
CCCc1nc2c(N)nc3cc(-c4cncc(CO)c4)ccc3c2n1CC(C)(C)O [Analog 17]	0.014
CCOCc1nc2c(N)nc3cc(-c4cccnc4)ccc3c2n1CC1CCN(C(=O)C(C)C)CC1 [Analog 18]	0.12
CCc1nc2c(N)nc3cc(-c4cccnc4)ccc3c2n1CC1CCN(C(=O)C(C)C)CC1 [Analog 19]	0.12
CCCc1nc2c(N)nc3cc(-c4cccnc4)ccc3c2n1CC1CCN(C(=O)C(C)C)CC1 [Analog 20]	0.12
COCCc1nc2c(N)nc3cc(-c4ccccc4)ccc3c2n1CCCN1CCCC1=O [Analog 21]	0.12
CCOCc1nc2c(N)nc3cc(-c4ccccc4)ccc3c2n1CCCN1CCCC1=O [Analog 22]	0.37
COCCc1nc2c(N)nc3cc(-c4ccccc4)ccc3c2n1CC(C)(C)O [Analog 23]	0.014
CCOCc1nc2c(N)nc3cc(-c4ccccc4)ccc3c2n1CC(C)(C)O [Analog 24]	0.014

same assay, conditions: Table 10; maximal response in dose response curve; * = below experimental background level; median

SMILES	Maximal Response (pg/mL) IFN [pg/mL]
COCc1nc2c(N)nc3cc(-c4cncc(CO)c4)ccc3c2n1CC(C)(C)O [Analog 13]	1771
CCOCc1nc2c(N)nc3cc(-c4cncc(CO)c4)ccc3c2n1CC(C)(C)O [Analog 14]	6308
CCc1nc2c(N)nc3cc(-c4cncc(CO)c4)ccc3c2n1CC(C)(C)O [Analog 15]	2084
COCCc1nc2c(N)nc3cc(-c4cncc(CO)c4)ccc3c2n1CC(C)(C)O [Analog 16]	5868
CCCc1nc2c(N)nc3cc(-c4cncc(CO)c4)ccc3c2n1CC(C)(C)O [Analog 17]	1079
CCOCc1nc2c(N)nc3cc(-c4cccnc4)ccc3c2n1CC1CCN(C(=O)C(C)C)CC1 [Analog 18]	2979
CCc1nc2c(N)nc3cc(-c4cccnc4)ccc3c2n1CC1CCN(C(=O)C(C)C)CC1 [Analog 19]	1686
CCCc1nc2c(N)nc3cc(-c4cccnc4)ccc3c2n1CC1CCN(C(=O)C(C)C)CC1 [Analog 20]	1157
COCCc1nc2c(N)nc3cc(-c4ccccc4)ccc3c2n1CCCN1CCCC1=O [Analog 21]	1880
CCOCc1nc2c(N)nc3cc(-c4ccccc4)ccc3c2n1CCCN1CCCC1=O [Analog 22]	1665
COCCc1nc2c(N)nc3cc(-c4ccccc4)ccc3c2n1CC(C)(C)O [Analog 23]	260
CCOCc1nc2c(N)nc3cc(-c4ccccc4)ccc3c2n1CC(C)(C)O [Analog 24]	440

test system: tumor necrosis factor (α) (TNF-α); experiment: Cytokine induction in human cells: TNF-α secreted by PBMC into culture media (ORIGEN M-Series immunoassay); assay type: cell-based; conditions: Table 10; human PBMC; lowest tested concentration inducing TNF-α over usually 40 pg/mL; median where more than one experiment; read-out: Minimum Effective Concentration (μM) TNF
Excerpt: as §1, §2, §3, §4, §5, §6, §7, §8
The TNF-α concentration is determined by ORIGEN M-Series Immunoassay and read on an IGEN M-8 analyzer from BioVeris Corporation, formerly known as IGEN International, Gaithersburg, Md. The immunoassay uses a human TNF-α capture and detection antibody pair (Catalog Numbers AHC3419 and AHC3712) from Biosource International, Camarillo, Calif. Results are expressed in pg/mL.
as §9
Analysis of the data has two steps. First, the greater of the mean DMSO (DMSO control wells) or the experimental background (usually 20 pg/mL for IFN-α and 40 pg/mL for TNF-α) is subtracted from each reading. If any negative values result from background subtraction, the reading is reported as “*”, and is noted as not reliably detectable. In subsequent calculations and statistics, “*”, is treated as a zero. Second, all background subtracted values are multiplied by a single adjustment ratio to decrease experiment to experiment variability. The adjustment ratio is the area of the reference compound in the new experiment divided by the expected area of the reference compound based on the past 61 experiments (unadjusted readings). […]

SMILES	minimal effective concentration [µM]
COCc1nc2c(N)nc3cc(-c4cncc(CO)c4)ccc3c2n1CC(C)(C)O [Analog 13]	3.33
CCOCc1nc2c(N)nc3cc(-c4cncc(CO)c4)ccc3c2n1CC(C)(C)O [Analog 14]	0.12
CCc1nc2c(N)nc3cc(-c4cncc(CO)c4)ccc3c2n1CC(C)(C)O [Analog 15]	1.11
COCCc1nc2c(N)nc3cc(-c4cncc(CO)c4)ccc3c2n1CC(C)(C)O [Analog 16]	0.04
CCCc1nc2c(N)nc3cc(-c4cncc(CO)c4)ccc3c2n1CC(C)(C)O [Analog 17]	0.12
CCOCc1nc2c(N)nc3cc(-c4cccnc4)ccc3c2n1CC1CCN(C(=O)C(C)C)CC1 [Analog 18]	0.37
CCc1nc2c(N)nc3cc(-c4cccnc4)ccc3c2n1CC1CCN(C(=O)C(C)C)CC1 [Analog 19]	1.11
CCCc1nc2c(N)nc3cc(-c4cccnc4)ccc3c2n1CC1CCN(C(=O)C(C)C)CC1 [Analog 20]	0.37
COCCc1nc2c(N)nc3cc(-c4ccccc4)ccc3c2n1CCCN1CCCC1=O [Analog 21]	1.11
CCOCc1nc2c(N)nc3cc(-c4ccccc4)ccc3c2n1CCCN1CCCC1=O [Analog 22]	1.11
COCCc1nc2c(N)nc3cc(-c4ccccc4)ccc3c2n1CC(C)(C)O [Analog 23]	0.014
CCOCc1nc2c(N)nc3cc(-c4ccccc4)ccc3c2n1CC(C)(C)O [Analog 24]	0.12

same assay, conditions: Table 10; maximal response in dose response curve; * = below experimental background level; median

SMILES	Maximal Response (pg/mL) TNF [pg/mL]
COCc1nc2c(N)nc3cc(-c4cncc(CO)c4)ccc3c2n1CC(C)(C)O [Analog 13]	8000
CCOCc1nc2c(N)nc3cc(-c4cncc(CO)c4)ccc3c2n1CC(C)(C)O [Analog 14]	18284
CCc1nc2c(N)nc3cc(-c4cncc(CO)c4)ccc3c2n1CC(C)(C)O [Analog 15]	10087
COCCc1nc2c(N)nc3cc(-c4cncc(CO)c4)ccc3c2n1CC(C)(C)O [Analog 16]	16296
CCCc1nc2c(N)nc3cc(-c4cncc(CO)c4)ccc3c2n1CC(C)(C)O [Analog 17]	16482
CCOCc1nc2c(N)nc3cc(-c4cccnc4)ccc3c2n1CC1CCN(C(=O)C(C)C)CC1 [Analog 18]	1449
CCc1nc2c(N)nc3cc(-c4cccnc4)ccc3c2n1CC1CCN(C(=O)C(C)C)CC1 [Analog 19]	619
CCCc1nc2c(N)nc3cc(-c4cccnc4)ccc3c2n1CC1CCN(C(=O)C(C)C)CC1 [Analog 20]	1054
COCCc1nc2c(N)nc3cc(-c4ccccc4)ccc3c2n1CCCN1CCCC1=O [Analog 21]	201
CCOCc1nc2c(N)nc3cc(-c4ccccc4)ccc3c2n1CCCN1CCCC1=O [Analog 22]	62
COCCc1nc2c(N)nc3cc(-c4ccccc4)ccc3c2n1CC(C)(C)O [Analog 23]	2296
CCOCc1nc2c(N)nc3cc(-c4ccccc4)ccc3c2n1CC(C)(C)O [Analog 24]	2238
